Measured values published in ChEMBL document CHEMBL1148078, “Isolation of Spongosine and 2'-Deoxyspongosine from a Western Australian Sponge of the Order Hadromerida (Tethyidae)” (J Nat Prod, 1994).
The source made the active and inactive calls.

How the values were obtained:
Assay type in all cases: functional, organism-based
Staphylococcus aureus = assay: Antimicrobial activity against Staphylococcus aureus at 200 ug/disk by disk diffusion assay
Candida albicans = assay: Antimicrobial activity against Candida albicans at 200 ug/disk by disk diffusion assay
Escherichia coli = assay: Antimicrobial activity against Escherichia coli at 200 ug/disk by disk diffusion assay
Pseudomonas aeruginosa = assay: Antimicrobial activity against Pseudomonas aeruginosa at 200 ug/disk by disk diffusion assay
[1] = test system: Saccharomyces pastorianus; assay: Antimicrobial activity against Saccharomyces carlsbergensis at 200 ug/disk by disk diffusion assay

Measured: Activity

COc1nc(N)c2ncn([C@H]3C[C@H](O)[C@@H](CO)O3)c2n1
inactive: all assays above

COc1nc(N)c2ncn([C@@H]3O[C@H](CO)[C@@H](O)[C@H]3O)c2n1
inactive: all assays above
